Patent publication US12527801B2, “Cell activator of animal cell” (Vitamin C60 BioResearch Corporation, priority 2019, dated 2026)

Tests used:
[1] = system: Normal human epidermal keratinocytes; test: Action of activating epidermal cells (MTT reduction); type: cell-based; details: for Index (%) Mean ± S.D.: 48 h, untreated cells = 100
Experimental: Normal human epidermal keratinocytes were seeded on 96-well plates at the density of 5.0×10^3 cells/well using a HuMedia KG2 medium (KG2). 24 hours after seeding, the above-mentioned medium was replaced with a HuMedia KB2 medium (KB2) comprising the test sample. AOH and AHX (2-azahypoxanthine) were used as test samples, KG2 as a positive control (P. C.) for the cell activating action was treated instead of the test sample, and cells which were not treated with the samples were used as a negative control. After culturing for 48 hours, the above-mentioned medium was replaced with KB2 comprising 0.2 mg/mL of MTT to perform culturing for 1 hour. After removing the medium, the absorbance at 550 nm and 650 nm of the cell lysate in which 2-propanol was added to lyse the cells was measured. The amount of MTT reduced to blue formazan was obtained by subtracting the absorbance at 650 nm, which was derived from the cell turbidity, from the absorbance at 550 nm. The action of activating epidermal keratinocytes was shown as Index (%), which is a percentage of the absorbance of the cells, which was treated with the test samples, to the absorbance of the cells, which was not treated with the samples (negative control), with the amount of MTT reduced as an index.

[2] = Test of long-term continuous use (double blind, half face): water content of keratin and TEWL; type: in vivo, human; details: conclusion from 8-week use of toner with 0.1% by weight AOH
Experimental: A test of long-term continuous use (double blind test) was performed using a toner (toner B) comprising 0.1% by weight of AOH of Example 4 and a placebo toner (toner A) having the same composition as that of the toner of Example 4 except that AOH was not comprised to perform evaluation of the water content of keratin and the transepidermal water loss (TEWL). 22 test subjects (females, average age 48.4±4.68 years old) were asked to apply the toner A on the half face and the toner B on the other half face after washing their faces twice in the morning and evening, and this was continued for 8 weeks. The water content of keratin and the TEWL were measured at the start of the test, after 4 weeks, and after 8 weeks. The water content of stratum corneum and the TEWL on the left and right cheek portions of the test subjects were measured using each of SKICON-200EX (Yayoi Co., Ltd.) and Cyclone Moisture Evaporator AS-CT1 (ASCH Japan Co., Ltd.). Analysis of test results was performed on 20 subjects as effective test subjects excluding 2 test subjects whose left-right difference in the water content of keratin at the start of the test was 150 μS or more.

Human patch test = details: in vivo
[3] = Mutagenicity test (Ames test) (OECD TG471); type: cell-based
[4] = system: reconstructed human epidermis (RhE) model (SkinEthic-RHE); test: Skin irritation test, reconstructed human epidermis model, MTT cell viability; type: cell-based
Experimental: A skin irritation test was performed in accordance with OECD Test Guidelines (No. 439), and SKINETHIC SKIN IRRITATION TEST, which is a TEST METHOD FOR THE PREDICTION OF ACUTE SKIN IRRITATION OF CHEMICALS and is a protocol published by the European Centre for the Validation of Alternative Methods (ECVAM). […] The cell viability of the RhE model was measured by an MTT method. In the MTT method, the cell viability is measured by quantitatively determining blue formazan utilizing a property that MTT (3-(4,5-dimethylthiazol-2-yl)-2,5-diphenyltetrazolium bromide, thiazolyl blue), which is a vital staining dye, is reduced to blue formazan by enzymatic reaction of viable cells. […]
After exposing the test sample for 42 minutes, the test sample was immediately removed from the epidermis model by a washing operation and cultured in fresh growth medium for an additional 42 hours. […] Thereafter, the epidermis model was immersed in isopropanol for 2 hours to extract blue formazan in the epidermis model, and the absorbance at 570 nm of the extraction liquid was measured with a microplate reader. The same treatment was performed on the epidermis model exposed to the negative control and the positive control to measure the absorbance. […]

O=c1[nH]c2nn[nH]c(=O)c2[nH]1 [AOH, 3H-imidazo[4,5-d][1,2,3]triazine-4,6(5H,7H)-dione]
Index (%) Mean ± S.D. ([1]; 3.9 μg/mL): 105.7 ± 4.5%
Index (%) Mean ± S.D. ([1]; 7.8 μg/mL): 108.4 ± 4%
Index (%) Mean ± S.D. ([1]; 15.6 μg/mL): 108.7 ± 5.6%
Index (%) Mean ± S.D. ([1]; 31.3 μg/mL): 109.7 ± 5.2%
Index (%) Mean ± S.D. ([1]; 62.5 μg/mL): 102.3 ± 2.8%
Index (%) Mean ± S.D. ([1]; 125 μg/mL): 98.6 ± 0.7%
Index (%) Mean ± S.D. ([1]; 250 μg/mL): 94.2 ± 1.7%
Index (%) Mean ± S.D. ([1]; 500 μg/mL): 91.9 ± 0.9%
cytotoxicity compared ([1]; AOH versus AHX): lower cytotoxicity than AHX
change in Index ([1]; concentrations of 7.8 to 31.3 μg/mL): significant increase in Index
proliferative effect / cell activating action ([1]; epidermal keratinocytes): has the cell activating action
moisturizing effect on the skin [2]: has the moisturizing effect on the skin
toxicity in human patch test (Human patch test): toxicity was not recognized
toxicity in mutagenicity test (Ames test) [3]: toxicity was not recognized
cell viability of the skin model ([4]; 42 min exposure, 42 h post-culture, MTT, PBS (−) negative control as 100%): 100%
skin irritation determination ([4]; RhE model, OECD TG 439): non-irritating
